Laboratory results reported in patent US12077503B2, “Substituted cyclic amides and their use as herbicides” (FMC CORPORATION, priority 2015, dated 2024).

Columns and labels:
Type in all cases: in vivo
[1] = system: giant foxtail (Setaria faberii); experiment: Test A preemergence; conditions: Preemergence; for Plant response rating, Foxtail, Giant: 125 g ai/ha, visual injury after approximately 10 d, 0 to 100 scale where 0 is no effect and 100 is complete control; for Foxtail, Giant plant response rating (0 to 100 scale, 0 is no effect, 100 is complete control): 500 g ai/ha, visual injury approx. 10 d
Summary of the method: (§1)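 In a loam soil and sand blend, planted seeds got a preemergence directed soil spray, and young plants at the one- to two-leaf stage, 2–10 cm high, got a postemergence application; ~10 d greenhouse hold; injury rated visually, 0 = none, 100 = complete control.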

[2] = system: pigweed (Amaranthus retroflexus); experiment: Test A preemergence; conditions: Preemergence; for Plant response rating, Pigweed: 125 g ai/ha, visual injury after approximately 10 d, 0 to 100 scale where 0 is no effect and 100 is complete control; for Pigweed plant response rating (0 to 100 scale, 0 is no effect, 100 is complete control): 500 g ai/ha, visual injury approx. 10 d
[3] = system: ryegrass, Italian (Italian ryegrass, Lolium multiflorum); experiment: Test A preemergence; conditions: Preemergence; for Plant response rating, Ryegrass, Italian: 125 g ai/ha, visual injury after approximately 10 d, 0 to 100 scale where 0 is no effect and 100 is complete control; for Ryegrass, Italian plant response rating (0 to 100 scale, 0 is no effect, 100 is complete control): 500 g ai/ha, visual injury approx. 10 d
Summary of the method: as §1

[4] = system: barnyardgrass (Echinochloa crus-galli); experiment: Test A preemergence; conditions: Preemergence; for Plant response rating, Barnyardgrass: 125 g ai/ha, visual injury after approximately 10 d, 0 to 100 scale where 0 is no effect and 100 is complete control; for Barnyardgrass plant response rating (0 to 100 scale, 0 is no effect, 100 is complete control): 500 g ai/ha, visual injury approx. 10 d
Summary of the method: as §1

[5] = system: ragweed (common ragweed, Ambrosia elatior); experiment: Test A preemergence; conditions: Preemergence; for Plant response rating, Ragweed: 125 g ai/ha, visual injury after approximately 10 d, 0 to 100 scale where 0 is no effect and 100 is complete control; for Ragweed plant response rating (0 to 100 scale, 0 is no effect, 100 is complete control): 500 g ai/ha, visual injury approx. 10 d
Summary of the method: as §1

Kochia (Kochia scoparia) [6] = experiment: Test A preemergence; conditions: Preemergence; for Plant response rating, Kochia: 125 g ai/ha, visual injury after approximately 10 d, 0 to 100 scale where 0 is no effect and 100 is complete control; for Kochia plant response rating (0 to 100 scale, 0 is no effect, 100 is complete control): 500 g ai/ha, visual injury approx. 10 d
Summary of the method: as §1

[7] = system: giant foxtail (Setaria faberii); experiment: Test A postemergence; conditions: for Foxtail, Giant plant response rating: 125 g ai/ha, postemergence, visual injury rating on 0 to 100 scale (0 no effect, 100 complete control), approx. 10 d; for Plant response rating, Foxtail, Giant: Postemergence, 500 g ai/ha, 0 to 100 scale where 0 is no effect and 100 is complete control
Summary of the method: as §1

[8] = system: pigweed (Amaranthus retroflexus); experiment: Test A postemergence; conditions: for Pigweed plant response rating: 125 g ai/ha, postemergence, visual injury rating on 0 to 100 scale (0 no effect, 100 complete control), approx. 10 d; for Plant response rating, Pigweed: Postemergence, 500 g ai/ha, 0 to 100 scale where 0 is no effect and 100 is complete control
Summary of the method: as §1

[9] = system: ryegrass, Italian (Italian ryegrass, Lolium multiflorum); experiment: Test A postemergence; conditions: for Ryegrass, Italian plant response rating: 125 g ai/ha, postemergence, visual injury rating on 0 to 100 scale (0 no effect, 100 complete control), approx. 10 d; for Plant response rating, Ryegrass, Italian: Postemergence, 500 g ai/ha, 0 to 100 scale where 0 is no effect and 100 is complete control
Summary of the method: as §1

[10] = system: barnyardgrass (Echinochloa crus-galli); experiment: Test A postemergence; conditions: for Barnyardgrass plant response rating: 125 g ai/ha, postemergence, visual injury rating on 0 to 100 scale (0 no effect, 100 complete control), approx. 10 d; for Plant response rating, Barnyardgrass: Postemergence, 500 g ai/ha, 0 to 100 scale where 0 is no effect and 100 is complete control
Summary of the method: as §1

[11] = system: ragweed (common ragweed, Ambrosia elatior); experiment: Test A postemergence; conditions: for Ragweed plant response rating: 125 g ai/ha, postemergence, visual injury rating on 0 to 100 scale (0 no effect, 100 complete control), approx. 10 d; for Plant response rating, Ragweed: Postemergence, 500 g ai/ha, 0 to 100 scale where 0 is no effect and 100 is complete control
Summary of the method: as §1

[12] = system: Galium (catchweed bedstraw, Galium aparine); experiment: Test A postemergence; conditions: for Galium plant response rating: 125 g ai/ha, postemergence, visual injury rating on 0 to 100 scale (0 no effect, 100 complete control), approx. 10 d; for Plant response rating, Galium: Postemergence, 500 g ai/ha, 0 to 100 scale where 0 is no effect and 100 is complete control
Summary of the method: as §1

[13] = system: wheat (Triticum aestivum); experiment: Test A postemergence; conditions: for Wheat plant response rating: 125 g ai/ha, postemergence, visual injury rating on 0 to 100 scale (0 no effect, 100 complete control), approx. 10 d; for Plant response rating, Wheat: Postemergence, 500 g ai/ha, 0 to 100 scale where 0 is no effect and 100 is complete control
Summary of the method: as §1

corn (Zea mays) = experiment: Test A postemergence; conditions: for Corn plant response rating: 125 g ai/ha, postemergence, visual injury rating on 0 to 100 scale (0 no effect, 100 complete control), approx. 10 d; for Plant response rating, Corn: Postemergence, 500 g ai/ha, 0 to 100 scale where 0 is no effect and 100 is complete control
Summary of the method: as §1

[14] = system: blackgrass (Alopecurus myosuroides); experiment: Test A postemergence; conditions: for Blackgrass plant response rating: 125 g ai/ha, postemergence, visual injury rating on 0 to 100 scale (0 no effect, 100 complete control), approx. 10 d; for Plant response rating, Blackgrass: Postemergence, 500 g ai/ha, 0 to 100 scale where 0 is no effect and 100 is complete control
Summary of the method: as §1

Kochia (Kochia scoparia) [15] = experiment: Test A postemergence; conditions: for Kochia plant response rating: 125 g ai/ha, postemergence, visual injury rating on 0 to 100 scale (0 no effect, 100 complete control), approx. 10 d; for Plant response rating, Kochia: Postemergence, 500 g ai/ha, 0 to 100 scale where 0 is no effect and 100 is complete control
Summary of the method: as §1

rice (Oryra sativa) = experiment: Test B flooded paddy test; conditions: Flood, 250 g ai/ha; 0 to 100 scale where 0 is no effect and 100 is complete control; 13 to 15 d
Summary of the method: (§2)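 2-leaf plants; pots flooded 3 cm over soil; cpd added to paddy water; depth held; greenhouse 13–15 d; visual rating vs controls, 0 = no effect, 100 = complete control.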

[16] = system: barnyardgrass (Echinochloa crus-galli); experiment: Test B flooded paddy test; conditions: Flood, 250 g ai/ha; 0 to 100 scale where 0 is no effect and 100 is complete control; 13 to 15 d
Summary of the method: as §2

[17] = system: ducksalad (Heteranthera limosa); experiment: Test B flooded paddy test; conditions: Flood, 250 g ai/ha; 0 to 100 scale where 0 is no effect and 100 is complete control; 13 to 15 d
Summary of the method: as §2

[18] = system: sedge, umbrella (small-flower umbrella sedge, Cyperus difformis); experiment: Test B flooded paddy test; conditions: Flood, 250 g ai/ha; 0 to 100 scale where 0 is no effect and 100 is complete control; 13 to 15 d
Summary of the method: as §2

| SMILES | Plant response rating, Foxtail, Giant [1] | Foxtail, Giant plant response rating (0 to 100 scale, 0 is no effect, 100 is complete control) [1] | Plant response rating, Pigweed [2] | Pigweed plant response rating (0 to 100 scale, 0 is no effect, 100 is complete control) [2] | Plant response rating, Ryegrass, Italian [3] | Ryegrass, Italian plant response rating (0 to 100 scale, 0 is no effect, 100 is complete control) [3] | Plant response rating, Barnyardgrass [4] | Barnyardgrass plant response rating (0 to 100 scale, 0 is no effect, 100 is complete control) [4] | Plant response rating, Ragweed [5] | Ragweed plant response rating (0 to 100 scale, 0 is no effect, 100 is complete control) [5] | Plant response rating, Kochia (Kochia (Kochia scoparia) [6]) | Kochia plant response rating (0 to 100 scale, 0 is no effect, 100 is complete control) (Kochia (Kochia scoparia) [6]) | Foxtail, Giant plant response rating [7] | Plant response rating, Foxtail, Giant [7] | Pigweed plant response rating [8] | Plant response rating, Pigweed [8] | Ryegrass, Italian plant response rating [9] | Plant response rating, Ryegrass, Italian [9] | Barnyardgrass plant response rating [10] | Plant response rating, Barnyardgrass [10] | other results |
| --- | --- | --- | --- | --- | --- | --- | --- | --- | --- | --- | --- | --- | --- | --- | --- | --- | --- | --- | --- | --- | --- |
| O=C1NCC(c2cccc(F)c2F)C1C(=O)Nc1ccccc1F (stereo not drawn) [Compound 494] | 80 | 90 | 0 | 0 | 0 | 0 | 70 | 90 | 0 | 0 | 0 | 0 | 20 | 60 | 0 | 0 | 0 | 0 | 30 | 80 | Ragweed plant response rating [11]: 0; Plant response rating, Ragweed [11]: 0; Galium plant response rating [12]: 0; Plant response rating, Galium [12]: 0; Wheat plant response rating [13]: 0; Plant response rating, Wheat [13]: 0; Corn plant response rating (corn (Zea mays)): 0; Plant response rating, Corn (corn (Zea mays)): 0; Blackgrass plant response rating [14]: 0; Plant response rating, Blackgrass [14]: 0; Kochia plant response rating (Kochia (Kochia scoparia) [15]): 0; Plant response rating, Kochia (Kochia (Kochia scoparia) [15]): 0; Plant response rating, Rice (rice (Oryra sativa)): 0; Plant response rating, Barnyardgrass [16]: 20; Plant response rating, Ducksalad [17]: 30; Plant response rating, Sedge, Umbrella [18]: 0 |
| COCc1cccc(C2CNC(=O)C2C(=O)Nc2ccc(F)cc2F)c1 (stereo not drawn) [Compound 499] | 30 | 90 | 0 | 0 | 0 | 0 | 30 | 90 | 0 | 0 | 0 | 30 | 20 | 30 | 0 | 0 | 0 | 0 | 30 | 80 | Ragweed plant response rating [11]: 0; Plant response rating, Ragweed [11]: 0; Galium plant response rating [12]: 0; Plant response rating, Galium [12]: 40; Wheat plant response rating [13]: 0; Plant response rating, Wheat [13]: 0; Corn plant response rating (corn (Zea mays)): 0; Plant response rating, Corn (corn (Zea mays)): 0; Blackgrass plant response rating [14]: 0; Plant response rating, Blackgrass [14]: 0; Kochia plant response rating (Kochia (Kochia scoparia) [15]): 0; Plant response rating, Kochia (Kochia (Kochia scoparia) [15]): 0; Plant response rating, Rice (rice (Oryra sativa)): 15; Plant response rating, Barnyardgrass [16]: 50; Plant response rating, Ducksalad [17]: 80; Plant response rating, Sedge, Umbrella [18]: 0 |
| CC(=O)N1CC(c2cccc(C(F)(F)F)c2)C(C(=O)Nc2ccccc2F)C1=O (stereo not drawn) [Compound 503] | 90 | 90 | 0 | 40 | 0 | 50 | 90 | 90 | 0 | 0 | 0 | 20 | 90 | 90 | 0 | 0 | 40 | 70 | 90 | 90 | Ragweed plant response rating [11]: 30; Plant response rating, Ragweed [11]: 30; Galium plant response rating [12]: 30; Plant response rating, Galium [12]: 70; Wheat plant response rating [13]: 0; Plant response rating, Wheat [13]: 40; Corn plant response rating (corn (Zea mays)): 20; Plant response rating, Corn (corn (Zea mays)): 80; Blackgrass plant response rating [14]: 30; Plant response rating, Blackgrass [14]: 70; Kochia plant response rating (Kochia (Kochia scoparia) [15]): 0; Plant response rating, Kochia (Kochia (Kochia scoparia) [15]): 0; Plant response rating, Rice (rice (Oryra sativa)): 0; Plant response rating, Barnyardgrass [16]: 45; Plant response rating, Ducksalad [17]: 85; Plant response rating, Sedge, Umbrella [18]: 0 |
